{
  "source": "patent US11560360B2",
  "about": "“Therapeutic compounds” (ARIZONA BOARD OF REGENTS ON BEHALF OF ARIZONA STATE …, priority 2016, dated 2023)",
  "key": {"FRDA lymphocytes [1]": {"system": "FRDA lymphocytes", "test": "Cytotoxicity assay in FRDA lymphocytes cultured in glucose free media (galactose), Live/Dead flow cytometry", "format": "cell-based", "protocol": "Flow cytometric determination of cell viability by fluorescence labeling was used employing calcein acetoxy-methyl-ester and ethidium homodimer-1 as live and dead cell stains\nCytotoxicity was assessed by the dye exclusion method. Live cells have intact membranes, which exclude a variety of dyes that easily penetrate the damaged, permeable membranes of non-viable cells. Propidium iodide, a membrane impermeant dye, is generally excluded from viable cells, although it can enter non-viable cells and bind to double-stranded DNA by intercalating between base pairs. Compounds 1-5 were tested for their cytotoxicity in FRDA lymphocytes using FACS analysis with propidium iodide. The results are depicted in FIG. 2. From the results it is evident that cytotoxicity decreases with increasing lipophilicity in lower as well as higher concentrations for compounds 1-5.\nEvaluation of compounds 1-5 for their cytotoxicity and their ability to function within the mitochondrial respiratory chain was carried out by incubation of the prepared compounds for 24 or 48 h with FRDA lymphocytes. A nutrient-sensitized screening strategy has been used by culturing FRDA cells in galactose as the sole sugar source which forces mammalian cells to rely on mitochondrial oxidative phosphorylation (OXPHOS) to produce their ATP; they also become more sensitive to mitochondrial respiratory chain inhibitors than cells grown in glucose medium. Compounds 1-5 were tested for their cytotoxicity in FRDA lymphocytes using a simultaneous staining with a two-color fluorescence assay, the Live/Dead® Viability/Cytotoxicity Kit (Molecular Probes). This assay is used to measure two recognized parameters of cell viability, intracellular esterase activity and plasma integrity. The membrane-impermeant DNA dye ethidium homodimer-1 (EthD-1) was used to identify dead cells whose plasma membrane integrity was disrupted. The membrane-permeant dye calcein-AM was used to label live cells. It penetrates into the cells where it is metabolized by cytoplasmic esterases and becomes a fluorescent but membrane-impermeant probe which is retained in viable cells. One mL of FRDA lymphocyte cells (5×10^5 cells) was plated in a 24-well plate in glucose free media (galactose 25 mM), treated with the test compounds and incubated at 37° C. for 24 h or 48 h in a humidified atmosphere containing 5% CO2 in air. Cells were collected by centrifugation at 300×g for 3 min and washed with phosphate buffered saline. […] The samples were analyzed immediately by flow cytometry (C6 Accuri, BD Biosciences, San Jose, Calif.), using a 488 nm excitation laser and the and the FL1-H channel 530±15 nm emission filter and the FL2-H channel 585±15 nm. For each analysis 10,000 events were recorded and analyzed using C6 Accuri software (BD Biosciences)."}, "[2]": {"system": "mitochondrial inner membrane potential in FRDA lymphocytes", "test": "JC-1 mitochondrial membrane potential (Δψm) assay", "format": "cell-based, human", "settings": "16 h pre-treatment, JC-1, FACS (FIG. 4)", "protocol": "In each analysis, 10000 events were recorded. Depolarization with carbonyl cyanide p-(trifluoromethoxy) phenylhydrazone (FCCP), was used to serve as a positive control.\nThe ability of 1-5 to maintain mitochondrial membrane potential (ΔΨm) compared to the parent compound MV was studied. ΔΨm was determined using the cationic fluorescent dye 5, 5′, 6, 6′-tetrachloro-1, 1′, 3, 3′-tetraethylbenzimidazolyl carbocyanine iodide (JC-1), which is a lipophilic cation that selectively accumulates in mitochondria due to the negative potential across the inner mitochondrial membrane. The dye exists as a monomer at low concentrations giving a green fluorescence. […] Therefore, mitochondrial depolarization is indicated by a decrease in red/green fluorescence ratio. […]\nThe ability of the test compounds to depolarize or maintains mitochondrial inner membrane potential (Δψm) was assessed using the JC-1 probe. […] JC-1 is a dual stain, which can identify high membrane potential through J-aggregates (red fluorescence) and low membrane potential through J-monomers (green fluorescence). […] Cells were resuspended in phosphate buffered saline supplemented with 20 mM glucose and were analyzed immediately by FACS (C6 Accuri, BD Biosciences, San Jose, Calif.), using a 488 nm excitation laser and the FL1-H channel 530±15 nm emission filter and the FL2-H channel 585±15 nm. […]"}, "FRDA lymphocytes [3]": {"system": "FRDA lymphocytes", "test": "Measurement of cellular ATP concentration (firefly luciferase)", "format": "cell-based, human", "settings": "glucose free media (25 mM galactose), relative to untreated control (FIG. 6)", "protocol": "Results are expressed as percentage of total ATP relative to untreated control.\nATP levels in FRDA lymphocytes were measured using firefly luciferase. The cells were grown on glucose-free media supplemented with galactose for 24 h prior to the addition of the test compounds. Since cells grown in galactose rely mostly on oxidative phosphorylation (OX-PHOS) to produce their ATP, they become more sensitive to mitochondrial respiratory chain inhibitors than cells grown in glucose medium.\nMeasurement of Cellular ATP Concentration\nTotal ATP levels in FRDA lymphocytes with or without partially blocking complex I activity with rotenone (5 nM) were measured using firefly luciferase as a means to measure ATP level. The cells were grown on glucose-free media supplemented with galactose. Since cells grown in galactose rely mostly on oxidative phosphorylation (OXPHOS) to produce their ATP, they become more sensitive to mitochondria respiratory chain inhibitors than cells grown in glucose medium. Briefly, lymphocytes (2×10^5 cell/mL) were plated (1 mL) in 24-well plates, treated with the test compounds, and then incubated at 37° C. for 48 h in a humidified atmosphere containing 5% CO2 in air. FRDA lymphocytes with partial inhibition of complex I, cells were preincubated with test compounds for overnight before rotenone (5 nM) treatment for 24 h. Cells in each well were mixed and transferred (100 μL) to 96-well microtiter black-walled cell culture plates (Costar, Corning, N.Y.). The total intracellular ATP level was measured in a luminator (Clarity™ luminescence microplate reader) using an ATP Bioluminescence Assay Kit (ViaLight®-Plus ATP monitoring reagent kit, Lonza) following the manufacturer's protocol. The total ATP level was expressed as a percentage of untreated control. Data are reported as the mean of at least three independent experiments."}},
  "data": [
    {"smiles": "CN(C)c1ccc2nc3ccc(=[N+](C)C)cc-3sc2c1", "note": "[MB, Methylene blue, reference compound]", "values": [
      {"measurement": "cytotoxicity", "setting": "FRDA lymphocytes [1]; FRDA lymphocytes on galactose for 48 h (FIG. 2)", "value": "cytotoxic"},
      {"measurement": "cytotoxicity", "setting": "FRDA lymphocytes [1]; FRDA lymphocytes, 0.5-2.5 μM concentrations", "value": "strong cytotoxicity"},
      {"measurement": "preservation of mitochondrial membrane potential (Δψm)", "setting": "[2]", "value": "significantly depolarized Δψm"},
      {"measurement": "cellular ATP levels", "setting": "FRDA lymphocytes [3]", "value": "inhibited ATP production, especially at higher concentrations"}
    ]}
  ]
}
